The results in this text go back to patent US7070917B1, “Determination of sperm concentration and viability for artificial insemination” (priority 2000, dated 2006).

One data set relates to bull sperm. Description: Flow cytometric (FACSCount) determination of sperm viability over staining time in bull ejaculates. Type of data set: cell-based. The settings on record: FACSCount blue laser (488 nm); SYBR-14 50 nM with PI 12 μM; replicates at 4 and 6 min staining, room temperature. The method, then:
A two-step dilution is necessary for the flow cytometric analyses. First, the sample is diluted 250× in a PBS medium containing 0.1% BSA, (NUNC Intermed Cat# 3478880, Lifetechnologies, Roskilde, Denmark), and second a 20 μl sample is transferred to a Sperm Count tube containing approximately 100,000 beads using reverse manual pipetting. The dyes were added to the Sperm Count tubes less than 12 hours before using the tubes in the analysing procedure. As mentioned above, two different flow cytometers were used, one being a FACSCount equipped with a green (543 nm) laser and the second being a FACSCount equipped with a blue (488 nm) laser.
To each Sperm Count tube to be analysed in the first FACSCount (543 nm), 2 μl of MPR71292 and 2 μl of EHD-2 were added to provide final concentrations of 100 nM and 5 μM, respectively.
To each Sperm Count tube to be analysed in the second FACSCount (488 nm), 5 μl of SYBR-14 and 5 μl of PI were added to provide for final concentrations of 50 nM and 12 μM, respectively.
Prior to opening the Sperm Count tubes, the tubes were whirlmixed for 3 sec in an upside-down position and for 3 sec in a normal position. Whirlmixing were repeated for two sec after addition of the sperm and before each analysis. […] After 4 min, the first replicates were analysed simultaneously on the two flow cytometers and the second replicates were analysed after a 6 min staining period. […]
Background: Flow cytometry measures light scatter and fluorescence of single cells or particles in a stream.

The test system of another data set is sperm cells. Description: Toxicity of SYBR-14 staining to sperm cells (decrease in live sperm cells over time). In kind it is cell-based.

Consider SYBR-14, for which the “decrease in sperm viability over time” value in the data set with bull sperm is listed as −0.15±0.07 %/min. Besides, the “decrease in the amount of live sperm cells” value was “no decrease” in the data set with sperm cells (SYBR-14 below standard concentrations (25 to 75 nanomolar, about 50 nanomolar)) and 0.6 % pr minute with sperm cells (SYBR-14 concentration of 100 nM). The toxicity to spermatozoa entry in the data set on sperm cells (standard concentrations (100 nM), staining time 10 to 15 minutes) is recorded as “slightly toxic”.
